# According to US9023862B2, “Medicament for the treatment of endometriosis” (Ferring International Center S.A., priority 2007, dated 2015):
# How the values were obtained:
# Wnt-1 = experiment: TaqMan Real-time PCR gene expression in implants: Wnt-1; type: in vivo, mice; conditions: for Wnt-1 relative expression: vehicle 1.0 ± 0.1, Mean ± SD
# From the text: (§1) TaqMan Real-time PCR and 2^−ΔΔCt methods were used to analyze the gene expression profiles of three different markers that promote angiogenesis (VEGF, VEGFR-2, Notch-4); Angiopoietin-1 (Ang-1), an antiangiogenesis marker which promotes the enlargement of existing vessels and resistance to leakage; and Wnt-1.
# (§2) TaqMan Real-time PCR and 2^−ΔΔCt methods were used to analyze the gene expression profiles of three different markers that promote angiogenesis (VEGF, VEGFR-2, Notch-4); Angiopoietin-1 (Ang-1), an antiangiogenesis marker which promotes the enlargement of existing vessels and resistance to leakage; and Wnt-1. The housekeeping 18S rRNA was used to normalize the target gene Ct values. The Ct value in each group was expressed relative to the control group Ct values (calibrator), to calculate the relative expression by the 2^−ΔΔCt method. cDNA obtained from sarcoma 180 tumor cells (S-180) and human umbilical vein endothelial cells (HUVEC) was used as negative and positive control, respectively, for the VEGF and VEGFR-2 gene expression. Spleen was used as positive control for Ang-1 and Wnt-1, and lung was employed as a Notch-4 positive control.
# endometriotic lesions [1] = experiment: Nude mouse endometriosis model: active lesions, histology (OM, TEM) and morphometry; type: in vivo, mice; conditions: for percentage of active lesions: two weeks, control 89.6±5.7%, p=0.0169, mean ± SEM
# Method: An experimental animal endometriosis model was developed in nude mice by inserting human endometrium fragments. Female mice (Hsd: Athimic Nude-nu, Harlan Ibérica S. L, Barcelona, Spain) were individually housed in autoclaved cages and bedding, in laminar flow filtered hoods. The animal room was maintained at 26 C with a 12-h light, 12-h dark cycle, and mice were fed ad libitum with autoclaved laboratory rodent chow and acidified water. All handling was performed in laminar flow filtered hoods. A mixture of ketamine/medetomidine (75 μg/g ketamine and 1 μg/g medetomidine) (Ketolar®, Parke-Davis, España; Domtor®, Pfizer, Spain) i.p injected, was used to anesthetize mice before invasive procedures and atipamezole (Antisedan®, SmithKline Beecham, Spain) 1 μg/g i.p injected, to reverse the anesthesia effects, was used after invasive procedures, using sterile instruments.
# At the age of 5 weeks, sterile 60-d release capsules containing 18 mg 17β-estradiol (Innovative Research of America, Sarasota, Fla.) were placed sc in the neck of each animal. According to the manufacturer's information, capsules provide continuous release of hormone at serum concentrations of 150-250 pmol/liter, in the range of physiological levels in mice during the estrous cycle. This stable physiological level of estrogen promotes the growth of transplanted human endometrium and avoids intermouse differences related to various stages of the estrous cycle.
# Four days after insertion of the estrogen pellet, an entrance was made to the peritoneal cavity in the midline in the lower abdomen to insert fresh human endometrium from ovum pick-up donors. These fragments were stuck by glue (Vetabond®, 3M Animal Care products, USA) to the peritoneum. This protocol allowed to mimic the pathologic situation of retrograde menstruation that occur in women with endometriosis.
# (§3) Morphometric study was performed to measure the implants area and cellular density. Immunocytochemistry with Ki-67 (monoclonal IgG1 DAKO Corp., Denmark) antibody was performed in order to evaluate the proliferative activity of the implants. The histopathological and subcellular ultrastructural changes were detected using an optical microscope (OM), transmission electronic microscope (TEM) and histochemical staining. Optical microscopy (OM), transmission electron microscopy (TEM) and morphometry were performed to ascertain the presence of endometrial glands and stroma and study subcellular ultrastructural changes, area of the implants and cellular density.
# [2] = tested on: blood vessels in endometriotic lesions; experiment: Immunofluorescence (vWF/α-SMA) of new and mature blood vessels in the implants; type: in vivo, mice; conditions: low and high dose groups vs control
# Method: The anti-angiogenic effects of the dopamine agonists were assessed by immunofluorescence, the antibodies used in confocal microscopy raised against Von Willebrand factor (vWF monoclonal IgG1, DAKO Corp., Denmark) present in endothelial cells and vascular smooth muscle cells (monoclonal IgG2 α-SMA-FITC conjugated de Sigma, St Louis, USA). Blood vessel which are not of new formation, are rounded by a smooth muscle layer which confers maturity to them. Identification of endothelial cells was made employing vWF, whereas mature vessels were identified by α-SMA positive staining. Thus, vWF+/αSMA− blood vessels were considered new or immature, while vWF+/αSMA+ vessels were classified as old or mature blood vessels.
# The angiogenic status of the lesions was initially analyzed using immunofluorescence employing antibodies to identify new (vWF+/αSMA−) and old vessels (vWF+/αSMA+) and confocal microscopy (Leica Confocal Software). Immunofluorescence employing antibodies raised against the Von Willebrand factor (vWF) present in endothelial cells and vascular smooth muscle cells (α-SMA) can be used to test the antiangiogenic action Cb2. Blood vessel which are not of new formation, are rounded by a smooth muscle layer which confers maturity to them. Identification of endothelial cells was made employing vWF, whereas mature vessels were identified by α-SMA positive staining. […]
# Ang-1 = experiment: TaqMan Real-time PCR gene expression in implants: Ang-1; type: in vivo, mice; conditions: for Ang-1 relative expression: vehicle 1.1 ± 0.2, Mean ± SD
# From the text: as §1, §2
# [3] = Toxicity in the nude mouse endometriosis study; conditions: 0.05 and 0.1 mg/kg/day oral, two weeks
# From the text: (§4) Three weeks after implantation the animals were split into three groups. […] Two weeks after treatment the animals were sacrificed and the endometriotic lesions sampled and analysed as set out below.
# VEGFR-2 (KDR) = experiment: TaqMan Real-time PCR gene expression in implants: VEGFR-2 (KDR); type: in vivo, mice; conditions: for VEGFR-2 (KDR) relative expression: vehicle 1.0 ± 0.1, Mean ± SD
# From the text: as §1, §2
# endometriotic lesions [4] = experiment: Ki-67 immunocytochemistry, proliferative activity of the implants; type: in vivo, mice; conditions: both low and high dose groups vs control; P<0.001
# Method: as §3
# An immunocyto chemistry study using the Ki-67 antibody (i.e. analysing the degree of cellular proliferation employing antibodies against Ki-67) was used to evaluate the proliferative activity of the implants using methods known in the art.
# Notch-4 = experiment: TaqMan Real-time PCR gene expression in implants: Notch-4; type: in vivo, mice; conditions: for Notch-4 relative expression: vehicle 1.0 ± 0.1, Mean ± SD
# From the text: as §1, §2
# VEGF = experiment: TaqMan Real-time PCR gene expression in implants: VEGF; type: in vivo, mice; conditions: for VEGF relative expression: vehicle 1.2 ± 0.3, Mean ± SD
# From the text: as §1, §2
# [5] = mouse, in vivo
# From the text: as §4
# [6] = low and high dose groups, p <0.05
structure (smiles),measurement,setting,value
C=CCN1C[C@H](C(=O)N(CCCN(C)C)C(=O)NCC)C[C@@H]2c3cccc4[nH]cc(c34)C[C@H]21 [cabergoline],Wnt-1 relative expression,Wnt-1; HIGH DOSE (0.1 mg/kg/day),3.3 ± 0.6
same,Wnt-1 relative expression,Wnt-1; LOW DOSE (0.05 mg/kg/day),3.4 ± 0.2
same,Expression of Wnt-1 in treated groups vs vehicle,"Wnt-1; low and high dose groups, p =0.07",Upregulated
same,ratio glands/stroma (morphometry),"endometriotic lesions [1]; both low (0.05 mg/kg/day) and high (0.1 mg/kg/day) doses vs controls, p<0.05",more stroma and less glands than the controls
same,cellular density (morphometry),"endometriotic lesions [1]; control, low and high dose groups",no statistical difference among groups
same,histology of treated lesions (OM and TEM),endometriotic lesions [1]; high and low dose,"a lax stroma, with lost cellularity and organization"
same,percentage of active lesions,endometriotic lesions [1]; high dose 0.1 mg/kg/day oral,60.4±8.4%
same,percentage of active lesions,endometriotic lesions [1]; low dose 0.05 mg/kg/day oral,58.6±9.7%
same,new blood vessel formation (angiogenesis),[2],significantly reduced new blood vessel formation
same,Ang-1 relative expression,Ang-1; HIGH DOSE (0.1 mg/kg/day),3.7 ± 0.6
same,Ang-1 relative expression,Ang-1; LOW DOSE (0.05 mg/kg/day),3.2 ± 0.6
same,Expression of Ang-1 in treated groups vs vehicle,Ang-1; [6],Upregulated
same,mortality following administration,[3],No mice in the study died
same,VEGFR-2 (KDR) relative expression,VEGFR-2 (KDR); HIGH DOSE (0.1 mg/kg/day),0.3 ± 0.1
same,VEGFR-2 (KDR) relative expression,VEGFR-2 (KDR); LOW DOSE (0.05 mg/kg/day),0.4 ± 0.1
same,Expression of VEGFR-2 (KDR) in treated groups vs vehicle,VEGFR-2 (KDR); [6],Downregulated
same,"proliferation (Proliferation Index, Ki-67 positive cells)",endometriotic lesions [4],decrease in proliferation
same,Notch-4 relative expression,Notch-4; HIGH DOSE (0.1 mg/kg/day),0.4 ± 0.1
same,Notch-4 relative expression,Notch-4; LOW DOSE (0.05 mg/kg/day),0.5 ± 0.1
same,Expression of Notch-4 in treated groups vs vehicle,Notch-4; [6],Downregulated
same,VEGF relative expression,VEGF; HIGH DOSE (0.1 mg/kg/day),0.4 ± 0.1
same,VEGF relative expression,VEGF; LOW DOSE (0.05 mg/kg/day),0.5 ± 0.2
same,VEGF expression in endometrial implants,"VEGF; increasing doses (control, 0.05, 0.1 mg/kg/day), FIG. 6a",trend towards decreased VEGF expression
same,Expression of VEGF in treated groups vs vehicle,VEGF; [6],Downregulated
same,body weight of the mice in the different treatment groups,[5],not significantly different
